One assay has as its target T1, HCV NS5B (Hepatitis C virus genotype 1b, UniProt Q9WMX2).
T1 construct: The cDNA encoding the NS5B protein of HCV, genotype 1b; made in house; host or cells: E. coli BL21(DE3)
The experiment in a line: Modified HCV NS5B RdRp enzyme assay (preincubation protocol). The assay is classed as biochemical. The settings on record: preincubation protocol; read-out: IC50. How it is done:
HCV NS5B RdRp cloning, expression, and purification. The cDNA encoding the NS5B protein of HCV, genotype 1b, was cloned into the pET21a expression vector. The protein was expressed with an 18 amino acid C-terminal truncation to enhance the solubility. The E. coli competent cell line BL21(DE3) was used for expression of the protein. Cultures were grown at 37° C. for ˜4 hours until the cultures reached an optical density of 2.0 at 600 nm. The cultures were cooled to 20° C. and induced with 1 mM IPTG. Fresh ampicillin was added to a final concentration of 50 μg/ml and the cells were grown overnight at 20° C.
Cell pellets (3 L) were lysed for purification to yield 15-24 mgs of purified NS5B. The lysis buffer consisted of 20 mM Tris-HCl, pH 7.4, 500 mM NaCl, 0.5% triton X-100, 1 mM DTT, 1 mM EDTA, 20% glycerol, 0.5 mg/ml lysozyme, 10 mM MgCl2, 15 ug/ml deoxyribonuclease I, and Complete™ protease inhibitor tablets (Roche). After addition of the lysis buffer, frozen cell pellets were resuspended using a tissue homogenizer. To reduce the viscosity of the sample, aliquots of the lysate were sonicated on ice using a microtip attached to a Branson sonicator. The sonicated lysate was centrifuged at 100,000×g for 1 hr at 4° C. and filtered through a 0.2 μm filter unit (Corning).
The protein was purified using three sequential chromatography steps: Heparin sepharose CL-6B, polyU sepharose 4B, and Hitrap SP sepharose (Pharmacia). The chromatography buffers were identical to the lysis buffer but contained no lysozyme, deoxyribonuclease I, MgCl2 or protease inhibitor and the NaCl concentration of the buffer was adjusted according to the requirements for charging the protein onto the column. Each column was eluted with a NaCl gradient which varied in length from 5-50 column volumes depending on the column type. After the final chromatography step, the resulting purity of the enzyme is >90% based on SDS-PAGE analysis. The enzyme was aliquoted and stored at −80° C.
Standard HCV NS5B RdRp enzyme assay. HCV RdRp genotype 1b assays were run in a final volume of 60 μl in 96 well plates (Costar 3912). The assay buffer is composed of 20 mM Hepes, pH 7.5, 2.5 mM KCl, 2.5 mM MgCl2, 1 mM DTT, 1.6 U RNAse inhibitor (Promega N2515), 0.1 mg/ml BSA (Promega R3961), and 2% glycerol. All compounds were serially diluted (3-fold) in DMSO and diluted further in water such that the final concentration of DMSO in the assay was 2%. HCV RdRp genotype 1b enzyme was used at a final concentration of 28 nM. A polyA template was used at 6 nM, and a biotinylated oligo-dT12 primer was used at 180 nM final concentration. Template was obtained commercially (Amersham 27-4110). Biotinylated primer was prepared by Sigma Genosys. 3H-UTP was used at 0.6 μCi (0.29 μM total UTP). Reactions were initiated by the addition of enzyme, incubated at 30° C. for 60 min, and stopped by adding 25 μl of 50 mM EDTA containing SPA beads (4 μg/μl, Amersham RPNQ 0007). Plates were read on a Packard Top Count NXT after >1 hr incubation at room temperature.
Modified HCV NS5B RdRp enzyme assay. A modified enzyme assay was performed essentially as described for the standard enzyme assay except for the following: The biotinylated oligo dT12 primer was precaptured on streptavidin-coated SPA beads by mixing primer and beads in assay buffer and incubating at room temperature for one hour. Unbound primer was removed after centrifugation. The primer-bound beads were resuspended in 20 mM Hepes buffer, pH 7.5 and used in the assay at final concentrations of 20 nM primer and 0.67 μg/μl beads. Order of addition in the assay: enzyme (14 nM) was added to diluted compound followed by the addition of a mixture of template (0.2 nM), 3H-UTP (0.6 μCi, 0.29 μM), and primer-bound beads, to initiate the reaction; concentrations given are final. Reactions were allowed to proceed for 4 hours at 30° C.
IC50 values for compounds were determined using seven different [I]. […]

The test system of another assay is HCV replicon cells. The experiment in a line: HCV replicon FRET assay. It is filed as cell-based. The note with it: Hepatitis C virus; FRET assay; read-out: EC50. The source says: FRET Assay Preparation. To perform the HCV FRET screening assay, 96-well cell culture plates were used. The FRET peptide (Anaspec, Inc.) (Taliani et al., Anal. Biochem. 1996, 240, 60-67) contains a fluorescence donor, EDANS, near one end of the peptide and an acceptor, DABCYL, near the other end. The fluorescence of the peptide is quenched by […] resonance energy transfer (RET) between the donor and the acceptor, but as the NS3 protease cleaves the peptide the products are released from RET quenching and the fluorescence of the donor becomes apparent. The assay reagent was made as follows: 5× cell Luciferase cell culture lysis reagent from Promega (#E153A) diluted to 1× with dH2O, NaCl added to 150 mM final, the FRET peptide diluted to 20 μM final from a 2 mM stock.
To prepare plates, HCV replicon cells, with or without a Renilla luciferase reporter gene, were trypsinized and placed into each well of a 96-well plate with titrated test compounds added in columns 3 through 12; columns 1 and 2 contained a control compound (HCV protease inhibitor), and the bottom row contained cells without compound. The plates were then placed in a CO2 incubator at 37° C.
Assays. Subsequent to addition of the test compounds described above (FRET Assay Preparation), at various times the plate was removed and Alamar blue solution (Trek Diagnostics, #00-100) was added per well as a measure of cellular toxicity. After reading in a Cytoflour 4000 instrument (PE Biosystems), plates were rinsed with PBS and then used for FRET assay by the addition of 30 ul of the FRET peptide assay reagent described above (FRET Assay Preparation) per well. The plate was then placed into the Cytoflour 4000 instrument which had been set to 340 excite/490 emission, automatic mode for 20 cycles and the plate read in a kinetic mode. Typically, the signal to noise using an endpoint analysis after the reads was at least three-fold. Alternatively, after Alamar blue reading, plates were rinsed with PBS, 50 ul of DMEM (high glucose) without phenol red was added and plates were then used for luciferase assay using the Promega Dual-Glo Luciferase Assay System.
Compound analysis was determined by quantification of the relative HCV replicon inhibition and the relative cytotoxicity values. To calculate cytoxicity values, the average Alamar Blue fluorescence signals from the control wells were set as 100% non-toxic. The individual signals in each of the compound test wells were then divided by the average control signal and multiplied by 100% to determine […]. To calculate the HCV replicon inhibition values, an average background value was obtained from the two wells containing the highest amount of HCV protease inhibitor at the end of the assay period. These numbers were similar to those obtained from naïve Huh-7 cells.
The background numbers were then subtracted from the average signal obtained from the control wells and this number was used as 100% activity. The individual signals in each of the compound test wells were then divided by the averaged control values after background subtraction and multiplied by 100% to determine percent activity. EC50 values for a protease inhibitor titration were calculated as the concentration which caused a 50% reduction in FRET or luciferase activity. The two numbers generated for the compound plate, percent cytoxicity and percent activity were used to determine compounds of interest for further analysis.

One may read the IC50 as the concentration needed to halve the response being measured. One may read the EC50 as the concentration at which the effect is half-maximal.

T1 sequence (Q9WMX2 2420-2992): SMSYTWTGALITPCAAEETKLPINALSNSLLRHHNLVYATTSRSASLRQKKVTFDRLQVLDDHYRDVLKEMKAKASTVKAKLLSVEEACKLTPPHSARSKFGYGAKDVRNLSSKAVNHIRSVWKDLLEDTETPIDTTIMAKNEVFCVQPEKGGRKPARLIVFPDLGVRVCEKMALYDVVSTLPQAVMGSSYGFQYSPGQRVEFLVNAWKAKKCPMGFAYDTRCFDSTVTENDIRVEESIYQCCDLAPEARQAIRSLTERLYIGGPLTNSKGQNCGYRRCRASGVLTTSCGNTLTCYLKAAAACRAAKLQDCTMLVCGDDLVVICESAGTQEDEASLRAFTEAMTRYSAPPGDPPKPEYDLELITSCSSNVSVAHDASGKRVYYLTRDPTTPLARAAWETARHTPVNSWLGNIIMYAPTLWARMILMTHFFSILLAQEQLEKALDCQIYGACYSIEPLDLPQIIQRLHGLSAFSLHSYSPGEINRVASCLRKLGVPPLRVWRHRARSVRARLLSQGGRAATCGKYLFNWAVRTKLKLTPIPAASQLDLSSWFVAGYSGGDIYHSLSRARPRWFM

Turning to `COc1ccc2c(c1)C=C(c1ccccc1CN1CCOCC1)Cn1c-2c(C2CCCCC2)c2ccc(C(=O)NS(=O)(=O)C(C)C)cc21`, on HCV NS5B, the IC50 fell in the range of 4.58 to 500 nM. Further, in the assay on HCV replicon cells, the EC50 was 4.58 to 500 nM.

On to `COc1ccc2c(c1)C=C(c1cccc(N3CCOCC3)n1)Cn1c-2c(C2CCCCC2)c2ccc(C(=O)NS(=O)(=O)N(C)C)cc21`, for which the IC50 on HCV NS5B was in the range of 4.58 to 500 nM. In the assay with HCV replicon cells, the EC50 is 4.58 to 500 nM.

With `COc1ccc2c(c1)CC(c1cccc(OCCN3CCOCC3)c1)Cn1c-2c(C2CCCCC2)c2ccc(C(=O)NS(=O)(=O)C(C)C)cc21` (stereo not drawn), the IC50 at HCV NS5B lay in the range of 4.58 to 500 nM. The EC50 in the assay with HCV replicon cells lay within 4.58 to 500 nM.

`COc1ccc2c(c1)C=C(c1ncccc1N1CC(C)(C)C1=O)Cn1c-2c(C2CCCCC2)c2ccc(C(=O)O)cc21`: on HCV NS5B, the IC50 was in the range of 4.58 to 500 nM. For the same molecule, in the assay with HCV replicon cells, the EC50 lay within 4.58 to 500 nM.

Turning to `COc1ccc2c(c1)C=C(c1ncccc1C(=O)N1CCOCC1)Cn1c-2c(C2CCCCC2)c2ccc(C(=O)NS(=O)(=O)N(C)C)cc21`, the IC50 on HCV NS5B was 4.58 to 500 nM. Further, in the assay with HCV replicon cells, the EC50 is 4.58 to 500 nM.

Take `COc1ccc2c(c1)C=C(c1cccc(OCCN3CCOCC3)c1)Cn1c-2c(C2CCCCC2)c2ccc(C(=O)O)cc21`: the IC50 at HCV NS5B fell in the range of 4.58 to 500 nM. For the same molecule, in the assay with HCV replicon cells, the EC50 is above 500 nM.

In the case of `COc1ccc2c(c1)C=C(c1cc(C(F)(F)F)ccc1N1CCOCC1)Cn1c-2c(C2CCCCC2)c2ccc(C(=O)NS(=O)(=O)C(C)C)cc21`, the IC50 on HCV NS5B is above 500 nM. For the same molecule, the EC50 in the assay with HCV replicon cells is above 500 nM.

Consider `COc1ccc2c(c1)C=C(c1ccccc1)Cn1c-2c(C2CCCCC2)c2ccc(C(=O)NS(=O)(=O)C(C)C)cc21`, for which, on HCV NS5B, the IC50 was 4.58 to 500 nM. Also, in the assay on HCV replicon cells, the EC50 was above 500 nM.

Take `COc1ccc2c(c1)C1CC1(c1ncccc1C(=O)N1CCN(C)CC1)Cn1c-2c(C2CCCCC2)c2ccc(C(=O)NS(=O)(=O)N(C)C)cc21` (stereo not drawn): the IC50 on HCV NS5B lay within 4.58 to 500 nM. Besides, the EC50 in the assay on HCV replicon cells was in the range of 4.58 to 500 nM.

As to `COc1ccc2c(c1)C=C(c1cc([N+](=O)[O-])c3[nH]ccc3c1)Cn1c-2c(C2CCCCC2)c2ccc(C(=O)O)cc21`, at HCV NS5B, the IC50 lay in the range of 4.58 to 500 nM. In addition, in the assay on HCV replicon cells, the EC50 was above 500 nM.

For `COc1ccc2c(c1)CC(c1cccc(OCCN(C)C)c1)Cn1c-2c(C2CCCCC2)c2ccc(C(=O)NS(=O)(=O)C(C)C)cc21` (stereo not drawn), the IC50 at HCV NS5B fell in the range of 4.58 to 500 nM. Moreover, the EC50 in the assay with HCV replicon cells is 4.58 to 500 nM.

In the case of `COc1ccc2c(c1)C=C(c1ccccc1NC(=O)C1CC1)Cn1c-2c(C2CCCCC2)c2ccc(C(=O)NS(=O)(=O)C(C)C)cc21`, the IC50 at HCV NS5B was in the range of 4.58 to 500 nM. Further, in the assay on HCV replicon cells, the EC50 lay in the range of 4.58 to 500 nM.

The record behind these values is US7642251B2, “Compounds for the treatment of hepatitis C” (Bristol-Myers Squibb Company, priority 2007, dated 2010).
